Converted amounts (≈) assume the structure as drawn.
Assays:
[1] = tested on: formaldehyde-induced paw oedema; experiment: Formaldehyde-induced rat paw oedema; format: in vivo; conditions: 2.5 mg/kg orally
Description: Testing was performed to determine formaldehyde-induced rat paw oedema (edema). For the formaldehyde-induced rat paw oedema (edema) test, female Wister albino rats (150-175 g) were used for determination of the anti-inflammatory activities. The rats were obtained from the animal house colony of the National Organization for Drug Control and Research (NODCAR), Egypt. The animals were kept in standard plastic cages in an air conditioned room at 22±3° C., 55±5% humidity and supplied with standard laboratory diet and water ad libitum. All animal experimental procedures were carried out according to the Ethics Committee of the National Research Centre, Cairo, Egypt and followed the guidelines of the National Institutes of Health, Guide for Care and Use of Laboratory Animals (1985).
The percentage protection against inflammation was calculated by using following formula:
[formula] where Vc is the mean percentage increase in paw volume in the control and Vd is the mean percentage increase in paw volume after injection of the test compound. Values were expressed as mean±standard error (S.E.). Comparisons between mean values were carried out using two-way analysis of variance (ANOVA), followed by Tukey Kramer multiple comparisons test for all acute toxicity study tests. […] was considered significant. Graph pad prism software (version 6) was used to carry out all statistical tests.

[2] = DPPH microplate radical scavenging antioxidant assay; format: biochemical; conditions: DPPH, 30 min, mean ± SD (n = 3)
In short: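 Compounds, starting at 200 μg/mL in a dilution series, incubated with 0.2 mM methanolic DPPH for 30 min in the dark at 25° C. Absorbance at 515 nm converted to percent antioxidant activity; IC50 from concentration series, triplicate, mean±SD (n=3).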

[3] = tested on: tested microorganisms; experiment: MIC by two fold serial dilution, summary over the tested microorganisms; format: cell-based
From the text: (§1) The newly synthesized compounds were individually tested for their in vitro antimicrobial activity against the standard bacteria strains of American Type Culture Collection (ATCC), namely, Staphylococcus aureus ATCC 29213, Bacillus subtilis ATCC 6633, Bacillus megaterium ATCC 9885 (Gram-positive), Escherichia coli ATCC 2592 and Pseudomonas aeruginosa ATCC 27953 (Gram-negative). In addition, they were microbiologically tested against the locally isolated Saccharomyces cerevisiae (yeast) and the standard strain of Agricultural Research Service Culture Collection (NRRL) of the yeast like pathogenic fungus Candida albicans NRRL Y-477. The primary screening was carried out using the agar well diffusion method using nutrient agar (NA) medium and Sabourand dextrose agar (SDA) medium for pathological tested bacteria and yeast, respectively.
(§2) The bacteriostatic activity of the active compounds (having IZ>16 mm) was then evaluated using the two fold serial dilution technique. Two-fold serial dilutions of the tested compound solutions were prepared using the proper nutrient broth. The final concentration of the solutions were 1000, 500, 250 and 125 μg/ml. The tubes were then inoculated with the test organisms, grown in their suitable broth at 37° C. for 24 hours for tested microorganisms. (1×10^8 CFU/ml for bacteria and 1×10^6 CFU/ml of yeast), each 5 ml received 0.1 ml of the above inoculum and incubated at 37° C. for 24 h. The lowest concentration showing no growth was taken as the minimum inhibitory concentration (MIC).

[4] = tested on: trypsin; experiment: Proteinase inhibitory activity (trypsin/casein); format: biochemical; conditions: for % Inhibition of proteinase activity: 250 μg/ml, mean ± SD (n = 3)
In short: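 Trypsin (0.06 mg) in 20 mM Tris-HCl pH 7.4 was preincubated 5 min with test sample (250 μg/ml solution), then 0.8% casein was added for 20 min. The reaction was stopped with perchloric acid, and supernatant absorbance was read at 280 nm after centrifugation. Percent inhibition relative to the uninhibited control was determined in triplicate.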

[5] = tested on: Candida albicans NRRL Y-477; experiment: MIC by two fold serial dilution technique; format: cell-based; conditions: NRRLY477, C. albicans, read-out: Minimal Inhibitory Concentration (MIC) CA
From the text: as §1, §2

[6] = tested on: Bacillus megaterium ATCC 9885; experiment: MIC by two fold serial dilution technique; format: cell-based; conditions: Priestia megaterium, ATCC9885; B. megaterium; read-out: Minimal Inhibitory Concentration (MIC) BM
From the text: as §1, §2

[7] = tested on: Pseudomonas aeruginosa ATCC 27953; experiment: MIC by two fold serial dilution technique; format: cell-based; conditions: ATCC27953, P. aeruginosa, read-out: Minimal Inhibitory Concentration (MIC) PA
From the text: as §1, §2

[8] = tested on: Saccharomyces cerevisiae (local isolate); experiment: MIC by two fold serial dilution technique; format: cell-based; conditions: read-out: Minimal Inhibitory Concentration (MIC) SC
From the text: as §1, §2

[9] = tested on: Escherichia coli ATCC 2592; experiment: MIC by two fold serial dilution technique; format: cell-based; conditions: ATCC2592, E. coli, read-out: Minimal Inhibitory Concentration (MIC) EC
From the text: as §1, §2

[10] = tested on: Bacillus subtilis ATCC 6633; experiment: MIC by two fold serial dilution technique; format: cell-based; conditions: ATCC6633, B. subtilis, read-out: Minimal Inhibitory Concentration (MIC) BS
From the text: as §1, §2

[11] = tested on: Staphylococcus aureus ATCC 29213; experiment: MIC by two fold serial dilution technique; format: cell-based; conditions: ATCC29213, S. aureus, read-out: Minimal Inhibitory Concentration (MIC) SA
From the text: as §1, §2

[12] = tested on: Bacillus megaterium ATCC 9885; experiment: Agar well diffusion, primary antimicrobial screening; format: cell-based; conditions: Priestia megaterium, ATCC9885; B. megaterium ATCC 9885; 100 μL of 10 mg/ml in DMSO, 24 h; read-out: Inhibition Diameter Zone BM
In short: (§3)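 Seeded agar (bacteria 1×10^8 CFU/mL on nutrient agar; yeasts 1×10^6 CFU/ml on Sabouraud dextrose agar), 10 mm wells loaded with compound at 10 mg/ml in DMSO. Incubated 24 h at 37° C. Inhibition zone diameter (mm), mean of triplicate; DMSO negative control.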

[13] = tested on: Pseudomonas aeruginosa ATCC 27953; experiment: as above; format: cell-based; conditions: Pseudomonas aeruginosa, ATCC27953; P. aeruginosa ATCC 27953; 100 μL of 10 mg/ml in DMSO, 24 h; read-out: Inhibition Diameter Zone PA
In short: as §3

[14] = tested on: Escherichia coli ATCC 2592; experiment: as above; format: cell-based; conditions: Escherichia coli, ATCC2592; E. coli ATCC 2592; 100 μL of 10 mg/ml in DMSO, 24 h; read-out: Inhibition Diameter Zone EC
In short: as §3

[15] = tested on: Bacillus subtilis ATCC 6633; experiment: as above; format: cell-based; conditions: Bacillus subtilis, ATCC6633; B. subtilis ATCC 6633; 100 μL of 10 mg/ml in DMSO, 24 h; read-out: Inhibition Diameter Zone BS
In short: as §3

Cc1ccc2oc(=O)c3c(c2c1)OC(N)=C(C#N)C3c1ccco1 (racemic) [Compound 5b, (±)-2-amino-4-(furan-2-yl)-9-methyl-5-oxo-4H,5H-pyrano[3,2-c]chromene-3-carbonitrile]
in vivo anti-inflammatory activity [1]: significant protection against inflammation
IC50 [2]: — ((—): inactive (IC50 > 200 μg/mL))
MIC ([3]; against gram-positive bacteria): 500 to 1000 µg/mL (≈ 1560 to 3120 µM)
melting point: 251 to 253 °C
in vitro anti-proteinase activity compared with aspirin [4]: more potent
% Inhibition of proteinase activity [4]: 74.68±3.01%

Cc1ccc2oc(=O)c3c(c2c1)OC(N=Cc1ccccc1)=C(C#N)C3c1ccc([N+](=O)[O-])cc1 (racemic) [Compound 8a, (±)-2-(benzylideneamino)-9-methyl-4-(4-nitrophenyl)-5-oxo-4H,5H-pyrano[3,2-c]chromene-3-carbonitrile]
IC50 [2]: — ((—): inactive (IC50 > 200 μg/mL))
MIC [5]: 500 µg/mL (≈ 1080 µM)
MIC [6]: 500 µg/mL (≈ 1080 µM)
MIC [7]: 500 µg/mL (≈ 1080 µM)
MIC [8]: 500 µg/mL (≈ 1080 µM)
MIC ([3]; against most of the tested microorganisms): 250 to 500 µg/mL (≈ 539 to 1080 µM)
melting point: 208 to 209 °C

COc1cc(C=NC2=C(C#N)C(c3ccc([N+](=O)[O-])cc3)c3c(c4cc(C)ccc4oc3=O)O2)cc(OC)c1OC (racemic) [Compound 8c, (±)-9-methyl-4-(4-nitrophenyl)-5-oxo-2-((3,4,5-trimethoxybenzylidene)amino)-4H,5H-pyrano[3,2-c]chromene-3-carbonitrile]
IC50 [2]: — ((—): inactive (IC50 > 200 μg/mL))
MIC [5]: 500 µg/mL (≈ 903 µM)
MIC [6]: 500 µg/mL (≈ 903 µM)
MIC [7]: 500 µg/mL (≈ 903 µM)
MIC [9]: 500 µg/mL (≈ 903 µM)
MIC [10]: 500 µg/mL (≈ 903 µM)
MIC [11]: 500 µg/mL (≈ 903 µM)
MIC [8]: 500 µg/mL (≈ 903 µM)
melting point: 221 to 223 °C
in vitro anti-proteinase activity compared with aspirin [4]: more potent
% Inhibition of proteinase activity [4]: 68.5±6.23%

COc1cc(C=NC2=C(C#N)C(c3ccco3)c3c(c4cc(C)ccc4oc3=O)O2)cc(OC)c1OC (racemic) [Compound 8d, (±)-4-(furan-2-yl)-9-methyl-5-oxo-2-((3,4,5-trimethoxybenzylidene)amino)-4H,5H-pyrano[3,2-c]chromene-3-carbonitrile]
zone of inhibition at 10000 µg/mL [12]: < 15 mm
zone of inhibition at 10000 µg/mL [13]: < 15 mm
zone of inhibition at 10000 µg/mL [14]: < 15 mm
zone of inhibition at 10000 µg/mL [15]: < 15 mm
IC50 [2]: 82.92 ± 3.30 µg/mL (≈ 166 µM)
MIC [5]: 1000 µg/mL (≈ 2010 µM)
MIC [11]: 1000 µg/mL (≈ 2010 µM)
MIC [8]: 1000 µg/mL (≈ 2010 µM)
melting point: 248 to 250 °C
in vitro anti-proteinase activity compared with aspirin [4]: as potent
% Inhibition of proteinase activity [4]: 43.4 ± 1.52%

Cc1ccc2oc(=O)c3c(c2c1)OC(N=Cc1ccc(Cl)cc1Cl)=C(C#N)C3c1ccco1 (racemic) [Compound 8f, (±)-2-((2,4-dichlorobenzylidene)amino)-4-(furan-2-yl)-9-methyl-5-oxo-4H,5H-pyrano[3,2-c]chromene-3-carbonitrile]
zone of inhibition at 10000 µg/mL [12]: 20 mm
zone of inhibition at 10000 µg/mL [14]: 20 mm
IC50 [2]: — ((—): inactive (IC50 > 200 μg/mL))
MIC [5]: 500 µg/mL (≈ 1050 µM)
MIC [6]: 1000 µg/mL (≈ 2100 µM)
MIC [7]: 1000 µg/mL (≈ 2100 µM)
MIC [9]: 1000 µg/mL (≈ 2100 µM)
MIC [10]: 500 µg/mL (≈ 1050 µM)
MIC [11]: 500 µg/mL (≈ 1050 µM)
MIC [8]: 500 µg/mL (≈ 1050 µM)
MIC ([3]; against gram-positive bacteria): 500 to 1000 µg/mL (≈ 1050 to 2100 µM)
melting point: > 300 °C
% Inhibition of proteinase activity [4]: 26.83 ± 5.33%

Reference: patent US10730885B1, “Coumarin derivatives” (KING SAUD UNIVERSITY, priority 2019, dated 2020)
